# Source: patent US20240269238A1, “Therapeutic Regimens and Methods for Reducing Body Weight in a Subject with Fatty Liver Disease using a GLP-1R and GCGR Agonist” (Spitfire Pharma LLC, priority 2022, published 2024)
# Columns and labels:
# [1] = Phase 1 12-week NAFLD study (Example 1): body weight loss; type: in vivo, human; conditions: for weight loss: week 12; for placebo-adjusted weight loss: 12 weeks
# Excerpt: Provided herein is disclosure of a Phase 1, multicenter, randomized, double-blind, placebo-controlled study to assess the effects of Pemvidutide (also termed herein as ALT-801), the safety of Pemvidutide and effects on hepatic fat fraction, anthropometric parameters, lipid metabolism, inflammatory markers and fibrosis markers in diabetic and non-diabetic (type 2 diabetes) overweight and obese (BMI 28.0 kg/m^2) subjects with NAFLD. This study was designed to assess changes in hepatic fat fraction by MRI-PDFF (magnetic resonance imaging-proton density fat fraction) in diabetic and non-diabetic overweight and obese subjects with NAFLD after 12 weeks of ALT-801 treatment. The trial was conducted without adjunctive diet and exercise interventions. The study assessed changes in body weight, lipid metabolism, metabolic markers, and inflammatory markers and safety and tolerability of ALT-801 after 12 weeks of treatment. Subjects were stratified for the presence or absence of diabetes at baseline. Fibroscan and cT1 assessments evaluated changes in liver inflammatory and fibrotic activity at the end of 12 weeks of treatment.
# Overweight and obese volunteers with BMI ≥28 kg/m^2 were studied because this is the typical population of individuals with NAFLD, and these subjects are able to better tolerate the predicted Pharmacodynamics (PD) effect of weight loss and could even benefit from treatment. A hepatic fat fraction of 10% has been typical for the evaluation of hepatic fat fraction in subjects with NAFLD. In other words, individuals with a liver fat fraction of 10% or greater are typically diagnosed with NAFLD. Diabetic subjects that require insulin, sulfonylureas or DDP-4 inhibitors for control of diabetes were excluded in this study. Exclusions were instituted that might otherwise affect an accurate assessment of the effects of ALT-801 on safety or PD. The BMI upper limit is set to 45 kg/m^2 as subjects over this BMI are no likely to fit into the MRI scanner.
# The study, described in this example, was carried out in 94 subjects overweight and obese (body mass index [BMI] ≥28.0 kg/m^2) Type 2 diabetic and non-diabetic subjects with nonalcoholic fatty liver disease (NAFLD) over about 4.5 months, including up to a 35-day screening period, and 85-day treatment period and a 25-day follow-up period, with treatment with ALT-801 (a composition comprising SEQ ID NO.: 1, “study medication”) or placebo administered by subcutaneous (SC) injection once weekly for up to twelve (12) doses.
# The safety objective of this study was to assess the safety and tolerability of ALT-801 in 18-65 years old subjects with NAFLD (NAFLD without significant fibrosis, defined as FibroScan® controlled attenuation parameter (CAP) ≥280 dB/m and liver stiffness measurement (LSM)<10 kPa (i.e., indicating the absence of significant fibrosis), magnetic resonance imaging derived proton density fat fraction (MRI-PDFF) ≥10%), hemoglobin Alc (HbAlc) of less than 9.5%, and alanine aminotransferase (ALT) or aspartate aminotransferase (AST) values of ≤[…]. The pharmacodynamic (PD) objectives of this study were to evaluate the effects of ALT-801 on hepatic fat fraction, anthropometric parameters, lipid metabolism, metabolic markers, inflammatory markers, fibrosis markers, and lipotoxicity markers. The pharmacokinetic (PK) objectives of this study were to evaluate the effects of ALT-801 and metformin exposure (drug interactions) on the subjects (e.g., ALT-801 and metformin concentrations in blood over time).
# After providing informed consent, subjects underwent a screening period of up to 35 days. Subjects were instructed on how to maintain their normal diets, alcohol consumption and physical activities and not to start any new diets, supplements, or exercise programs at any time while participating in the study. […]
# [2] = Phase 1b 24-week NAFLD study (Example 3): body weight loss; type: in vivo, human; conditions: for weight loss: Week 24
# Excerpt: Provided herein is disclosure of a 12-week extension study of the study provided in Example 1, providing a 24-week a Phase 1b, randomized, double-blind, placebo-controlled study to assess the effects of pemvidutide (also termed herein as ALT-801), the safety of pemvidutide and effects on weight loss, hepatic fat fraction, anthropometric parameters, lipid metabolism, as well as inflammatory, fibrosis and other markers in diabetic and non-diabetic (type 2 diabetes) overweight and obese (BMI≥28.0 kg/m^2) subjects with NAFLD (defined as liver fat content (LFC) by MRI-PDFF ≥10%; absence of significant fibrosis, defined as FibroScan® LSM ≤10 kPa), alanine aminotransferase (ALT) and aspartate aminotransferase (AST) laboratory values of ≤75 IU/L and HbA1c <9.5. Men and women aged 18-65 years were studied. Diabetic subjects were defined as those that have undergone stable dose (≥3 months) metformin or SLGT-2 therapy and no use of insulin, sulfonylureas, DPP-4, GLP-1 treatment; Ninety-four (94) subjects were enrolled in the initial 12-week Phase 1b NAFLD trial and 83 subjects who completed were invited to receive a total of 12 additional weeks of blinded treatment. Of those subjects, 66 consented to rollover, of which 64 were eligible to participate.
# The primary endpoint of this study was a reduction in liver fat content (LFC) by MRI-PDFF at Week 24 compared to Week 0 (zero). Key secondary endpoints include percent (%) weight loss at Week 24 compared to Week 0 (zero), and liver inflammation by alanine aminotransferase (ALT) levels and corrected T1 (cT1) imaging at Week 24 as compared to Week 0 (zero). Adverse events (AEs), including serious and severe AEs, AEs leading to discontinuation, GI tolerability, vital signs, and glycemic control including fasting glucose and HbA1c levels were also measured.
smiles,measurement,setting,value
"CC[C@H](C)[C@H](NC(=O)[C@H](Cc1ccccc1)NC(=O)[C@H](CCC(=O)O)NC(=O)[C@@H]1CCCCNC(=O)CC[C@H](NC(=O)[C@H](CC(=O)O)NC(=O)[C@H](CC(C)C)NC(=O)[C@H](Cc2ccc(O)cc2)NC(=O)[C@H](CCCCN)NC(=O)[C@H](CO)NC(=O)[C@H](Cc2ccc(O)cc2)NC(=O)[C@H](CC(=O)O)NC(=O)[C@H](CO)NC(=O)[C@@H](NC(=O)[C@H](Cc2ccccc2)NC(=O)[C@@H](NC(=O)CNC(=O)[C@H](CCC(N)=O)NC(=O)C(C)(C)NC(=O)[C@@H](N)Cc2c[nH]cn2)[C@@H](C)O)[C@H](C)O)C(=O)N[C@@H](CCCCNC(=O)C2O[C@@H](OCCCCCCCCCCCCCCCCCC(=O)O)C(O)C(O)[C@@H]2O)C(=O)N[C@@H](C)C(=O)N[C@@H](C)C(=O)N1)C(=O)N[C@@H](CCC(N)=O)C(=O)N[C@@H](Cc1c[nH]c2ccccc12)C(=O)N[C@@H](CC(C)C)C(=O)N[C@@H](CC(C)C)C(=O)N[C@@H](CCC(N)=O)C(=O)N[C@H](C(N)=O)[C@@H](C)O (some centres unmarked) [ALT-801, Pemvidutide]",weight loss,"[1]; all subjects, 1.2 mg",3.4%
same,weight loss,"[1]; all subjects, 1.8 mg",4.3%
same,weight loss,"[1]; all subjects, 2.4 mg",3.7%
same,weight loss,"[1]; diabetic subjects, 1.2 mg",3.3%
same,weight loss,"[1]; diabetic subjects, 1.8 mg",3.8%
same,weight loss,"[1]; diabetic subjects, 2.4 mg",4.4%
same,placebo-adjusted weight loss,[1]; diabetic subjects,4.5%
same,weight loss,"[1]; non-diabetic subjects, 1.2 mg",3.4%
same,weight loss,"[1]; non-diabetic subjects, 1.8 mg",4.9%
same,weight loss,"[1]; non-diabetic subjects, 2.4 mg",3.5%
same,placebo-adjusted weight loss,[1]; non-diabetic subjects,4.7%
same,weight loss (in words),[2]; Week 24 compared to Week 12,continued weight loss
same,weight loss,[2]; diabetic subjects,5.3%
same,weight loss,[2]; non-diabetic subjects,7.2%
